According to ChEMBL document CHEMBL1938265, “Synthesis and biological evaluation of novel indolocarbazoles with anti-angiogenic activity” (Eur J Med Chem, 2012):
Values belong to the compound of their own block, whether it stands above or below them. The source made the active and inactive calls. The rule behind the calls is not given here.

Columns and labels:
ST486 = experiment: Antiproliferative activity against human ST486 cells after 48 to 72 hrs by MTT assay; assay type: functional, cell-based
HUVEC [1] = experiment: Antiproliferative activity against human HUVEC after 48 to 72 hrs by MTT assay; assay type: functional, cell-based
LoVo [2] = experiment: Antiproliferative activity against human LoVo cells after 48 to 72 hrs by MTT assay; assay type: functional, cell-based
DLD-1 [3] = experiment: Antiproliferative activity against human DLD1 cells after 48 to 72 hrs by MTT assay; assay type: functional, cell-based
Mus musculus [4] = experiment: Toxicity in Lewis mouse allografted with mouse LL/2 cells assessed as change in body weight at 4 mg/ml, ip administered daily 24 hrs post implantation measured on day 18 (reference value: 22.7 +/- 0.2 g); assay type: organism-based; conditions: in vivo
[5] = Antitumor activity against mouse LL/2 cells allografted in Lewis mouse assessed as change in tumor weight at 4 mg/ml, ip administered daily 24 hrs post implantation (reference value: 7.1 +/- 1.1 g); assay type: functional, Lewis lung carcinoma
[6] = Antitumor activity against mouse LL/2 cells allografted in Lewis mouse assessed as decrease in lung metastasis number at 4 mg/ml, ip administered daily 24 hrs post implantation (reference value: 11.8 +/- 7.1 number); assay type: functional, Lewis lung carcinoma
HUVEC [7] = experiment: Antiangiogenic activity against HUVEC assessed as inhibition of capillary tube formation at 20 uM after 48 hrs by Matrigel assay; assay type: functional, cell-based; conditions: Homo sapiens
HUVEC [8] = experiment: Antiangiogenic activity against HUVEC assessed as inhibition of capillary tube formation at 20 uM after 24 hrs by Matrigel assay; assay type: functional, cell-based; conditions: Homo sapiens
[9] = Antitumor activity against mouse LL/2 cells allografted in Lewis mouse assessed as decrease in lung metastasis number at 5 ug/ml, ip administered daily 24 hrs post implantation (reference value: 11.8 +/- 7.1 number); assay type: functional, Lewis lung carcinoma
Mus musculus [10] = experiment: Toxicity in Lewis mouse allografted with mouse LL/2 cells assessed as change in body weight at 5 ug/ml, ip administered daily 24 hrs post implantation measured on day 18 (reference value: 22.7 +/- 0.2 g); assay type: organism-based; conditions: in vivo
[11] = Antitumor activity against mouse LL/2 cells allografted in Lewis mouse assessed as change in tumor weight at 5 ug/ml, ip administered daily 24 hrs post implantation (reference value: 7.1 +/- 1.1 g); assay type: functional, Lewis lung carcinoma
LoVo [12] = experiment: Selectivity ratio of IC50 for human LoVo cells to IC50 for HUVEC; assay type: functional
DLD-1 [13] = experiment: Selectivity ratio of IC50 for human DLD1 cells to IC50 for HUVEC; assay type: functional

Compound: CN(C)CCOCCn1c2ccccc2c2c3c(c4c5ccccc5[nH]c4c21)C(=O)NC3=O
IC50 (ST486): 2 µM | IC50 (HUVEC [1]): 2 µM

Compound: Cc1ccc(C(=O)Nc2ccc(S(=O)(=O)O)c3cc(S(=O)(=O)O)cc(S(=O)(=O)O)c23)cc1NC(=O)c1cccc(NC(=O)Nc2cccc(C(=O)Nc3cc(C(=O)Nc4ccc(S(=O)(=O)O)c5cc(S(=O)(=O)O)cc(S(=O)(=O)O)c45)ccc3C)c2)c1 [SURAMIN]
Activity (Mus musculus [4]): 25.5 g | Activity [5]: 5.9 g | Activity [6]: 5

Compound: CN[C@@H]1C[C@H]2O[C@@](C)([C@@H]1OC)n1c3ccccc3c3c4c(c5c6ccccc6n2c5c31)C(=O)NC4 [STAUROSPORINE]
IC50 (ST486): 0.007 µM

Compound: CN(C)CCN1C(=O)c2c(c3c4ccccc4[nH]c3c3[nH]c4ccccc4c23)C1=O
Activity (HUVEC [7]): Active | Activity (HUVEC [8]): Active | IC50 (LoVo [2]): 0.5 µM | IC50 (ST486): 1 µM | Activity [9]: 9.4 | IC50 (DLD-1 [3]): 3 µM | Activity (Mus musculus [10]): 27.29 g | Activity [11]: 7.3 g | IC50 (HUVEC [1]): 7 µM

Compound: CN(C)CCOCCn1c2ccccc2c2c3c(c4c5ccccc5[nH]c4c21)C(=O)N(CCN(C)C)C3=O.Cl.Cl
Activity (HUVEC [7]): Active | Ratio IC50 (LoVo [12]): 200 | Activity (HUVEC [8]): Active | Ratio IC50 (DLD-1 [13]): 200 | IC50 (LoVo [2]): 20 µM | IC50 (ST486): 4 µM | Activity [9]: 9 | IC50 (DLD-1 [3]): 20 µM | Activity (Mus musculus [10]): 28.5 g | Activity [11]: 7.6 g | IC50 (HUVEC [1]): 0.1 µM

Continued, in another order:

IC50 (LoVo [2]): 0.3 µM | IC50 (DLD-1 [3]): 20 µM
Compound: CN(C)CCN1C(=O)c2c(c3c4ccccc4n(CCOCCO)c3c3[nH]c4ccccc4c23)C1=O
IC50 (ST486): 3 µM | IC50 (HUVEC [1]): 0.1 µM

IC50 (LoVo [2]): 4 µM | IC50 (DLD-1 [3]): 2 µM
Compound: O=C1NC(=O)c2c1c1c3ccccc3[nH]c1c1c2c2ccccc2n1CCOCCO
IC50 (ST486): 0.1 µM | IC50 (HUVEC [1]): 10 µM

IC50 (LoVo [2]): 6 µM | IC50 (DLD-1 [3]): 7 µM
Compound: CNCCOCCn1c2ccccc2c2c3c(c4c5ccccc5[nH]c4c21)C(=O)N(CCN(C)C)C3=O
IC50 (ST486): 3 µM | IC50 (HUVEC [1]): 0.3 µM
